According to patent publication US12606541B2, “PPARg modulators and methods of use” (Eisai R&D Management Co., Ltd., priority 2020, dated 2026):

These molecules were tested against T1, His6-TEV-PPARγ-(234-505) (Homo sapiens, UniProt P37231) (assay: TR-FRET Assay to Measure Co-R Peptide Recruitment to PPARγ). Settings: Co-R peptide recruitment to PPARγ; read-out: TR-FRET AC50.
T1 construct: The His6-TEV-PPARγ-(234-505) protein for assay was expressed and purified; TEV cleavage site (N); made in house
T1 sequence (P37231 234-505): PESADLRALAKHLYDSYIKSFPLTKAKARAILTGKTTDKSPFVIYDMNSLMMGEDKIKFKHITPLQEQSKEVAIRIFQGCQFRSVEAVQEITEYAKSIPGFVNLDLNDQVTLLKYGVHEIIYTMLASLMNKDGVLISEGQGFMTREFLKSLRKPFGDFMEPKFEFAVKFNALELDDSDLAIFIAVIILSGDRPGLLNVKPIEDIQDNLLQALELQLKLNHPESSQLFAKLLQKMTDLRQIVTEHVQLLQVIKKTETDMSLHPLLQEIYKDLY
Assay type: biochemical
Summary of the method: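 Corepressor recruitment is measured by adding terbium-labeled anti-His antibody and FITC SMRT-ID2 peptide, at 5 and 200 nM final, after a 20-minute room-temperature protein–compound incubation. After one further hour, signal is converted to percent response between DMSO and 500 nM T0070907 wells.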
In the case of `Cn1cc(CNC(=O)C2CCN(C(=O)c3cc(-c4ccncc4)[nH]n3)CC2)cn1` [N-[(1-methyl-1H-pyrazol-4-yl)methyl]-1-[5-(pyridin-4-yl)-1H-pyrazole-3-carbonyl]piperidine-4-carboxamide], the AC50 is reported as over 1000 nM.
Molecule `COc1cc(-c2cc(C(=O)N3CCC(C(=O)NCc4ccc5[nH]cnc5c4)CC3)n[nH]2)c(Cl)cn1` [N-[(1H-1,3-benzodiazol-5-yl)methyl]-1-[5-(5-chloro-2-methoxypyridin-4-yl)-1H-pyrazole-3-carbonyl]piperidine-4-carboxamide] has an AC50 of over 1000 nM.
Molecule `Cc1ccc([C@@H](C)NC(=O)C2CCN(C(=O)c3cc(-c4ccncc4)[nH]n3)CC2)cc1` [N-[(1R)-1-(4-methylphenyl)ethyl]-1-[5-(pyridin-4-yl)-1H-pyrazole-3-carbonyl]piperidine-4-carboxamide] has an AC50 of over 1000 nM.
`C[C@@H](NC(=O)C1CCN(C(=O)c2cc(-c3ccncc3)[nH]n2)CC1)c1ccc(C(C)(C)C)cc1` [N-[(1R)-1-(4-tert-butylphenyl)ethyl]-1-[5-(pyridin-4-yl)-1H-pyrazole-3-carbonyl]piperidine-4-carboxamide] was tested, and the AC50 was over 1000 nM.
`C[C@@H](NC(=O)C1CCN(C(=O)c2cc(-c3ccncc3)[nH]n2)CC1)c1ccccc1` [N-[(1R)-1-phenylethyl]-1-[5-(pyridin-4-yl)-1H-pyrazole-3-carbonyl]piperidine-4-carboxamide] was tested, and the AC50 was over 1000 nM.
In the case of `Cc1ccc([C@H](C)NC(=O)C2CCN(C(=O)c3cc(-c4ccncc4)[nH]n3)CC2)cc1` [N-[(1S)-1-(4-methylphenyl)ethyl]-1-[5-(pyridin-4-yl)-1H-pyrazole-3-carbonyl]piperidine-4-carboxamide], the AC50 is reported as over 1000 nM.
`C[C@H](NC(=O)C1CCN(C(=O)c2cc(-c3ccncc3)[nH]n2)CC1)c1ccccc1` [N-[(1S)-1-phenylethyl]-1-[5-(pyridin-4-yl)-1H-pyrazole-3-carbonyl]piperidine-4-carboxamide] showed an AC50 of over 1000 nM.
Molecule `CC[C@H](NC(=O)C1CCN(C(=O)c2cc(-c3ccncc3)[nH]n2)CC1)c1ccccc1` [N-[(1S)-1-phenylpropyl]-1-[5-(pyridin-4-yl)-1H-pyrazole-3-carbonyl]piperidine-4-carboxamide] has an AC50 of over 1000 nM.
Molecule `COc1cccc(CNC(=O)C2CCN(C(=O)c3cc(-c4ccncc4)[nH]n3)CC2)c1OC` [N-[(2,3-dimethoxyphenyl)methyl]-1-[5-(pyridin-4-yl)-1H-pyrazole-3-carbonyl]piperidine-4-carboxamide] has an AC50 of over 1000 nM.
`O=C(NCc1cc(Cl)ccc1Cl)C1CCN(C(=O)c2cc(-c3cccnc3)[nH]n2)CC1` [N-[(2,5-dichlorophenyl)methyl]-1-[5-(pyridin-3-yl)-1H-pyrazole-3-carbonyl]piperidine-4-carboxamide] gave an AC50 of over 1000 nM.
With `O=C(NCc1cc(Cl)ccc1Cl)C1CCN(C(=O)c2cc(-c3ccncc3)[nH]n2)CC1` [N-[(2,5-dichlorophenyl)methyl]-1-[5-(pyridin-4-yl)-1H-pyrazole-3-carbonyl]piperidine-4-carboxamide] the AC50 was over 1000 nM.
With `COc1ccc(OC)c(CNC(=O)C2CCN(C(=O)c3cc(-c4ccncc4)[nH]n3)CC2)c1` [N-[(2,5-dimethoxyphenyl)methyl]-1-[5-(pyridin-4-yl)-1H-pyrazole-3-carbonyl]piperidine-4-carboxamide] the AC50 was over 1000 nM.
With `COc1cccc(OC)c1CNC(=O)C1CCN(C(=O)c2cc(-c3ccncc3)[nH]n2)CC1` [N-[(2,6-dimethoxyphenyl)methyl]-1-[5-(pyridin-4-yl)-1H-pyrazole-3-carbonyl]piperidine-4-carboxamide] the AC50 was over 1000 nM.
Molecule `Cc1cc(CNC(=O)C2CCN(C(=O)c3cc(-c4ccncc4)[nH]n3)CC2)cc(C)n1` [N-[(2,6-dimethylpyridin-4-yl)methyl]-1-[5-(pyridin-4-yl)-1H-pyrazole-3-carbonyl]piperidine-4-carboxamide] has an AC50 of over 1000 nM.
Work on `O=C(NCc1ccccc1Cl)C1CCN(C(=O)c2cc(-c3cccnc3)[nH]n2)CC1` [N-[(2-chlorophenyl)methyl]-1-[5-(pyridin-3-yl)-1H-pyrazole-3-carbonyl]piperidine-4-carboxamide] yielded an AC50 of over 1000 nM.
`O=C(NCc1ccccc1Cl)C1CCN(C(=O)c2cc(-c3ccncc3)[nH]n2)CC1` [N-[(2-chlorophenyl)methyl]-1-[5-(pyridin-4-yl)-1H-pyrazole-3-carbonyl]piperidine-4-carboxamide] showed an AC50 of over 1000 nM.
Work on `O=C(NCc1ccccc1F)C1CCN(C(=O)c2cc(-c3ccncc3)[nH]n2)CC1` [N-[(2-fluorophenyl)methyl]-1-[5-(pyridin-4-yl)-1H-pyrazole-3-carbonyl]piperidine-4-carboxamide] yielded an AC50 of over 1000 nM.
`COc1c(C)cccc1CNC(=O)C1CCN(C(=O)c2cc(-c3ccncc3)[nH]n2)CC1` [N-[(2-methoxy-3-methylphenyl)methyl]-1-[5-(pyridin-4-yl)-1H-pyrazole-3-carbonyl]piperidine-4-carboxamide] showed an AC50 of over 1000 nM.
Molecule `COc1nc(C)cc(C)c1CNC(=O)C1CCN(C(=O)c2cc(-c3ccncc3)[nH]n2)CC1` [N-[(2-methoxy-4,6-dimethylpyridin-3-yl)methyl]-1-[5-(pyridin-4-yl)-1H-pyrazole-3-carbonyl]piperidine-4-carboxamide] has an AC50 of over 1000 nM.
For `COc1ccc(C)cc1CNC(=O)C1CCN(C(=O)c2cc(-c3ccncc3)[nH]n2)CC1` [N-[(2-methoxy-5-methylphenyl)methyl]-1-[5-(pyridin-4-yl)-1H-pyrazole-3-carbonyl]piperidine-4-carboxamide], the AC50 was over 1000 nM.
Work on `COc1ccccc1CNC(=O)C1CCN(C(=O)c2cc(-c3ccncc3)[nH]n2)CC1` [N-[(2-methoxyphenyl)methyl]-1-[5-(pyridin-4-yl)-1H-pyrazole-3-carbonyl]piperidine-4-carboxamide] yielded an AC50 of over 1000 nM.
Work on `Cc1cc(CNC(=O)C2CCN(C(=O)c3cc(-c4ccncc4)[nH]n3)CC2)ccn1` [N-[(2-methylpyridin-4-yl)methyl]-1-[5-(pyridin-4-yl)-1H-pyrazole-3-carbonyl]piperidine-4-carboxamide] yielded an AC50 of over 1000 nM.
In the case of `O=C(NCc1ccc2c(c1)OCO2)C1CCCN(C(=O)c2cc(-c3ccncc3)[nH]n2)C1` (centres unmarked) [N-[(2H-1,3-benzodioxol-5-yl)methyl]-1-[5-(pyridin-4-yl)-1H-pyrazole-3-carbonyl]piperidine-3-carboxamide], the AC50 is reported as over 1000 nM.
`O=C(NCc1ccc2c(c1)OCO2)C1CCN(C(=O)c2cc(-c3ccncc3)[nH]n2)CC1` [N-[(2H-1,3-benzodioxol-5-yl)methyl]-1-[5-(pyridin-4-yl)-1H-pyrazole-3-carbonyl]piperidine-4-carboxamide] showed an AC50 of over 1000 nM.
Molecule `C[C@@H](CNC(=O)C1CCN(C(=O)c2cc(-c3ccncc3)[nH]n2)CC1)c1ccccc1` [N-[(2R)-2-phenylpropyl]-1-[5-(pyridin-4-yl)-1H-pyrazole-3-carbonyl]piperidine-4-carboxamide] has an AC50 of over 1000 nM.
In the case of `C[C@H](CNC(=O)C1CCN(C(=O)c2cc(-c3ccncc3)[nH]n2)CC1)c1ccccc1` [N-[(2S)-2-phenylpropyl]-1-[5-(pyridin-4-yl)-1H-pyrazole-3-carbonyl]piperidine-4-carboxamide], the AC50 is reported as over 1000 nM.
`O=C(NCc1ccc(Cl)c(Cl)c1)C1CCN(C(=O)c2cc(-c3cccnc3)[nH]n2)CC1` [N-[(3,4-dichlorophenyl)methyl]-1-[5-(pyridin-3-yl)-1H-pyrazole-3-carbonyl]piperidine-4-carboxamide] was tested, and the AC50 was over 1000 nM.
For `COc1c(Cl)cccc1CNC(=O)C1CCN(C(=O)c2cc(-c3ccncc3)[nH]n2)CC1` [N-[(3-chloro-2-methoxyphenyl)methyl]-1-[5-(pyridin-4-yl)-1H-pyrazole-3-carbonyl]piperidine-4-carboxamide], the AC50 was over 1000 nM.
Work on `COc1cc(-c2cc(C(=O)N3CCC(C(=O)NCc4cccc(Cl)c4)CC3)n[nH]2)c(C)cn1` [N-[(3-chlorophenyl)methyl]-1-[5-(2-methoxy-5-methylpyridin-4-yl)-1H-pyrazole-3-carbonyl]piperidine-4-carboxamide] yielded an AC50 of over 1000 nM.
`O=C(NCc1cccc(Cl)c1)C1CCN(C(=O)c2cc(-c3ccncc3)[nH]n2)CC1` [N-[(3-chlorophenyl)methyl]-1-[5-(pyridin-4-yl)-1H-pyrazole-3-carbonyl]piperidine-4-carboxamide] was tested, and the AC50 was over 1000 nM.
`COc1cc(-c2cc(C(=O)N3CC4CC3CC4C(=O)NCc3cccc(Cl)c3)n[nH]2)c(F)cn1` (centres unmarked) [N-[(3-chlorophenyl)methyl]-2-[5-(5-fluoro-2-methoxypyridin-4-yl)-1H-pyrazole-3-carbonyl]-2-azabicyclo[2.2.1]heptane-5-carboxamide] was tested, and the AC50 was over 1000 nM.
`COc1cc(-c2cc(C(=O)N3CC4CCC(C3)C4C(=O)NCc3cccc(Cl)c3)n[nH]2)c(F)cn1` (centres unmarked) [N-[(3-chlorophenyl)methyl]-3-[5-(5-fluoro-2-methoxypyridin-4-yl)-1H-pyrazole-3-carbonyl]-3-azabicyclo[3.2.1]octane-8-carboxamide] gave an AC50 of over 1000 nM.
With `COc1cccc(CNC(=O)C2CCN(C(=O)c3cc(-c4ccncc4)[nH]n3)CC2)c1` [N-[(3-methoxyphenyl)methyl]-1-[5-(pyridin-4-yl)-1H-pyrazole-3-carbonyl]piperidine-4-carboxamide] the AC50 was over 1000 nM.
With `Cc1cccc(CNC(=O)C2CCCN(C(=O)c3cc(-c4ccncc4)[nH]n3)C2)c1` (centres unmarked) [N-[(3-methylphenyl)methyl]-1-[5-(pyridin-4-yl)-1H-pyrazole-3-carbonyl]piperidine-3-carboxamide] the AC50 was over 1000 nM.
Molecule `O=C(N[C@@H]1CCN(Cc2ccccc2)C1)C1CCN(C(=O)c2cc(-c3cccnc3)[nH]n2)CC1` [N-[(3R)-1-benzylpyrrolidin-3-yl]-1-[5-(pyridin-3-yl)-1H-pyrazole-3-carbonyl]piperidine-4-carboxamide] has an AC50 of over 1000 nM.
